According to patent US20180078602A1, “METHODS AND COMPOSITIONS FOR EXTENDING THE EFFICACY OF PHOSPHODIESTERASE INHIBITORS FOR TREATING ERECTILE DYSFUNCTION, AND COMPOSITIONS FOR INHIBITING THE ONSET AND SLOWING THE PROGRESSION OF ERECTILE DYSFUNCTION” (K.L.R.M., LLC, priority 2015, published 2018):

Key:
[1] = tested on: rat corpora cavernosa smooth muscle/collagen; test: Masson trichrome staining, smooth muscle/collagen ratio by quantitative image analysis; format: in vivo; settings: daily oral treatment 2 months; compared to 12 month-old control animals
Experimental: (§1) Middle aged 10 month-old Fisher 344 rats (Harlan Sprague-Dawley, San Diego, Calif.) were divided in 4 groups and treated daily for two months as follows: • a) Control: 12 month-old at the time of death receiving by retrolingual administration vehicle only composed of 10% dimethyl sulfoxide, peanut butter and water (12 month); • b) Composition 4 (COMP 4): a combination of Muira Puama (45 mg/Kg B.W), Paullinia cupana (45 mg/Kg B.W), ginger (45 mg/Kg B.W) and […]) dissolved in vehicle; • c) Tadalafil (TAD): 2.5 mg/Kg B.W tadalafil dissolved in vehicle; • d) Composition 4+Tadalafil (COMP4+TAD): A combination of b and c at the same doses. Histochemistry and Immunohistochemistry. […] Quantitative Image Analysis was performed by computerized densitometry using ImagePro 7.1 software (Media Cybernetics, Silver Spring, Md.), coupled to an Olympus BHS microscope equipped with a Retiga digital camera. For Masson staining, 40× magnification pictures of the penis comprising half of the corpora cavernosa were analyzed for smooth muscle (stained in red) and collagen areas (stained in blue) excluding the sinusoidal spaces, and expressed as the smooth muscle/collagen ratio. For desmin and iNOS staining, 200× magnification pictures of the corpora cavernosa were analyzed in a computerized grid and expressed as a percentage of positive area versus total area of the corpora cavernosa. […]

[2] = tested on: desmin; test: Desmin immunohistochemistry (smooth muscle cell content); format: in vivo, rat; settings: treatment 2 months; with respect to 12 month-old non-treated controls
Experimental: as §1

Compound: CN1CC(=O)N2[C@H](c3ccc4c(c3)OCO4)c3[nH]c4ccccc4c3C[C@@H]2C1=O [tadalafil]
- improvement of SMC/collagen ratio [1]: 60%
- increase in desmin expression [2]: 38%
